{"source": "patent US12594276B2", "about": "“Inhibitors of human immunodeficiency virus replication” (ViiV Healthcare UK (No.5) Limited, priority 2024, dated 2026)", "key": {"[1]": {"assay": "Compound cytotoxicity, XTT-based colorimetric assay", "format": "cell-based", "conditions": "human", "procedure,_shortened": "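Uninfected MT2 cells were treated with compound under the same protocol as the antiviral assay. Viability was read on day 4 with an XTT colorimetric assay, from which CC50 values were derived.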"}, "[2]": {"test_system": "recombinant NL4-3 virus (nef section replaced with Renilla luciferase gene) in MT-2 cells", "assay": "HIV cell culture assay (antiviral activity, luciferase readout)", "format": "cell-based", "conditions": "Renilla, NL43, MT-2 cells infected for 4-5 days with recombinant NL4-3 Renilla luciferase virus", "procedure,_shortened": "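The reporter virus was produced by transfecting 293T cells with the NL4-3 nef/Renilla luciferase proviral clone. MT-2 cells were infected for 4–5 days with serial compound dilutions present. Luciferase was read with a live-cell substrate, and EC50 came from the exponential median-effect equation.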"}, "[3]": {"conditions": "uninfected MT2 cells, day 4, XTT, read-out: CC50"}}, "note": "Like-named read-outs stand apart in the source and are kept apart here."}
{"molecule": "Cc1cc(C2(F)CCC(F)(F)CC2)nc2nc([C@H](Cc3cc(F)cc(F)c3)NC(=O)Cn3nc(C4CC4)c4c3C[C@@H]3C[C@H]43)n(-c3ccc(Cl)c4c(NS(C)(=O)=O)nn(CCN5CCOCC5(C)C)c34)c(=O)c12", "note": "(atropisomer, axis not shown; (P)) [Example 586, N-[(1S)-1-[(3P)-3-{4-chloro-1-[2-(3,3-dimethylmorpholin-4-yl)ethyl]-3-methanesulfonamido-1H-indazol-7-yl}-5-methyl-4-oxo-7-(1,4,4-trifluorocyclohexyl)-3H,4H-pyrido[2,3-d]pyrimidin-2-yl]-2-(3,5-difluorophenyl)ethyl]-2-[(2S,4S)-9-cyclopropyl-7,8-diazatricyclo[4.3.0.0^2,^4]nona-1(6),8-dien-7-yl]acetamide]", "values": [{"measurement": "CC50 at 4 days", "setting": "[1]; [3]", "value": "> 20", "unit": "nM"}, {"measurement": "EC50", "setting": "[2]", "value": 0.016, "unit": "nM"}]}
{"molecule": "Cc1cc(C2(F)CCC(F)(F)CC2)nc2nc([C@H](Cc3cc(F)cc(F)c3)NC(=O)Cn3nc(C(F)F)c4c3C(F)(F)[C@@H]3C[C@H]43)n(-c3ccc(Cl)c4c(NS(C)(=O)=O)nn(CCN5C[C@H]6CC[C@@H](C5)O6)c34)c(=O)c12", "note": "(atropisomer, axis not shown; (P)) [Example 589, N-[(1S)-1-[(3P)-3-(4-chloro-3-methanesulfonamido-1-{2-[(1R,5S)-8-oxa-3-azabicyclo[3.2.1]octan-3-yl]ethyl}-1H-indazol-7-yl)-5-methyl-4-oxo-7-(1,4,4-trifluorocyclohexyl)-3H, 4H-pyrido[2,3-d]pyrimidin-2-yl]-2-(3,5-difluorophenyl)ethyl]-2-[(2S,4R)-9-(difluoromethyl)-5,5-difluoro-7,8-diazatricyclo[4.3.0.0^2,^4]nona-1(6),8-dien-7-yl]acetamide]", "values": [{"measurement": "CC50 at 4 days", "setting": "[1]; [3]", "value": "> 20", "unit": "nM"}, {"measurement": "EC50", "setting": "[2]", "value": 0.005, "unit": "nM"}]}
{"molecule": "Cc1cc(C2(F)CCC(F)(F)CC2)nc2nc([C@H](Cc3cc(F)cc(F)c3)NC(=O)Cn3nc(C(F)F)c4c3C(F)(F)[C@@H]3C[C@H]43)n(-c3ccc(Cl)c4c(NS(C)(=O)=O)nn(CCN5[C@@H]6CC[C@H]5COC6)c34)c(=O)c12", "note": "(atropisomer, axis not shown; (P)) [Example 590, N-[(1S)-1-[(3P)-3-(4-chloro-3-methanesulfonamido-1-{2-[(1R,5S)-3-oxa-8-azabicyclo[3.2.1]octan-8-yl]ethyl}-1H-indazol-7-yl)-5-methyl-4-oxo-7-(1,4,4-trifluorocyclohexyl)-3H,4H-pyrido[2,3-d]pyrimidin-2-yl]-2-(3,5-difluorophenyl)ethyl]-2-[(2S,4R)-9-(difluoromethyl)-5,5-difluoro-7,8-diazatricyclo[4.3.0.0^2,^4]nona-1(6),8-dien-7-yl]acetamide]", "values": [{"measurement": "CC50 at 4 days", "setting": "[1]", "value": "> 20", "unit": "nM"}, {"measurement": "EC50", "setting": "[2]", "value": 0.013, "unit": "nM"}]}
{"molecule": "Cc1cc(C2(F)CCC(F)(F)CC2)nc2nc([C@H](Cc3cc(F)cc(F)c3)NC(=O)Cn3nc(C4CC4)c4c3C[C@@H]3C[C@H]43)n(-c3ccc(Cl)c4c(NS(C)(=O)=O)nn(CCN5C[C@H]6CC[C@@H](C5)O6)c34)c(=O)c12", "note": "(atropisomer, axis not shown; (P)) [Example 592, N-[(1S)-1-[(3P)-3-(4-chloro-3-methanesulfonamido-1-{2-[(1R,5S)-8-oxa-3-azabicyclo[3.2.1]octan-3-yl]ethyl}-1H-indazol-7-yl)-5-methyl-4-oxo-7-(1,4,4-trifluorocyclohexyl)-3H,4H-pyrido[2,3-d]pyrimidin-2-yl]-2-(3,5-difluorophenyl)ethyl]-2-[(2S,4S)-9-cyclopropyl-7,8-diazatricyclo[4.3.0.0^2,^4]nona-1(6),8-dien-7-yl]acetamide]", "values": [{"measurement": "CC50 at 4 days", "setting": "[1]; [3]", "value": "> 20", "unit": "nM"}, {"measurement": "EC50", "setting": "[2]", "value": 0.006, "unit": "nM"}]}
{"molecule": "Cc1cc(C2(F)CCC(F)(F)CC2)nc2nc([C@H](Cc3cc(F)cc(F)c3)NC(=O)Cn3nc(C4CC4)c4c3C[C@@H]3C[C@H]43)n(-c3ccc(Cl)c4c(NS(C)(=O)=O)nn(CCN5[C@@H]6CC[C@H]5COC6)c34)c(=O)c12", "note": "(atropisomer, axis not shown; (P)) [Example 593, N-[(1S)-1-[(3P)-3-(4-chloro-3-methanesulfonamido-1-{2-[(1R,5S)-3-oxa-8-azabicyclo[3.2.1]octan-8-yl]ethyl}-1H-indazol-7-yl)-5-methyl-4-oxo-7-(1,4,4-trifluorocyclohexyl)-3H,4H-pyrido[2,3-d]pyrimidin-2-yl]-2-(3,5-difluorophenyl)ethyl]-2-[(2S,4S)-9-cyclopropyl-7,8-diazatricyclo[4.3.0.0^2,^4]nona-1(6),8-dien-7-yl]acetamide]", "values": [{"measurement": "CC50 at 4 days", "setting": "[1]", "value": "> 20", "unit": "nM"}, {"measurement": "EC50", "setting": "[2]", "value": 0.017, "unit": "nM"}]}
{"molecule": "Cc1cc(C2(F)CCC(F)(F)CC2)nc2nc([C@H](Cc3cc(F)cc(F)c3)NC(=O)Cn3nc(C(F)(F)F)c4c3C(F)(F)[C@@H]3C[C@H]43)n(-c3ccc(Cl)c4c(NS(C)(=O)=O)nn(CCN5C[C@@H](C)O[C@@H](C)C5)c34)c(=O)c12", "note": "(atropisomer, axis not shown; (P)) [Example 594, N-[(1S)-1-[(3P)-3-(4-chloro-1-{2-[(2R,6S)-2,6-dimethylmorpholin-4-yl]ethyl}-3-methanesulfonamido-1H-indazol-7-yl)-5-methyl-4-oxo-7-(1,4,4-trifluorocyclohexyl)-3H,4H-pyrido[2,3-d]pyrimidin-2-yl]-2-(3,5-difluorophenyl)ethyl]-2-[(2S,4R)-5,5-difluoro-9-(trifluoromethyl)-7,8-diazatricyclo[4.3.0.0^2,^4]nona-1(6),8-dien-7-yl]acetamide]", "values": [{"measurement": "CC50 at 4 days", "setting": "[1]; [3]", "value": "> 20", "unit": "nM"}, {"measurement": "EC50", "setting": "[2]", "value": 0.011, "unit": "nM"}]}
{"molecule": "Cc1cc(C2(F)CCC(F)(F)CC2)nc2nc([C@H](Cc3cc(F)cc(F)c3)NC(=O)Cn3nc(C4CC4)c4c3C(F)(F)[C@@H]3C[C@H]43)n(-c3ccc(Cl)c4c(NS(C)(=O)=O)nn(CCN5C[C@@H](C)O[C@@H](C)C5)c34)c(=O)c12", "note": "(atropisomer, axis not shown; (P)) [Example 595, N-[(1S)-1-[(3P)-3-(4-chloro-1-{2-[(2R,6S)-2,6-dimethylmorpholin-4-yl]ethyl}-3-methanesulfonamido-1H-indazol-7-yl)-5-methyl-4-oxo-7-(1,4,4-trifluorocyclohexyl)-3H,4H-pyrido[2,3-d]pyrimidin-2-yl]-2-(3,5-difluorophenyl)ethyl]-2-[(2S,4R)-9-cyclopropyl-5,5-difluoro-7,8-diazatricyclo[4.3.0.0^2,^4]nona-1(6),8-dien-7-yl]acetamide]", "values": [{"measurement": "CC50 at 4 days", "setting": "[1]; [3]", "value": "> 20", "unit": "nM"}, {"measurement": "EC50", "setting": "[2]", "value": 0.014, "unit": "nM"}]}
{"molecule": "Cc1cc(C2(F)CCC(F)(F)CC2)nc2nc([C@H](Cc3cc(F)cc(F)c3)NC(=O)Cn3nc(C(F)F)c4c3C[C@@H]3C[C@H]43)n(-c3ccc(Cl)c4c(NS(C)(=O)=O)nn(CCN5C[C@@H](C)O[C@@H](C)C5)c34)c(=O)c12", "note": "(atropisomer, axis not shown; (P)) [Example 596, N-[(1S)-1-[(3P)-3-(4-chloro-1-{2-[(2R,6S)-2,6-dimethylmorpholin-4-yl]ethyl}-3-methanesulfonamido-1H-indazol-7-yl)-5-methyl-4-oxo-7-(1,4,4-trifluorocyclohexyl)-3H,4H-pyrido[2,3-d]pyrimidin-2-yl]-2-(3,5-difluorophenyl)ethyl]-2-[(2S,4S)-9-(difluoromethyl)-7,8-diazatricyclo[4.3.0.0^2,^4]nona-1(6),8-dien-7-yl]acetamide]", "values": [{"measurement": "CC50 at 4 days", "setting": "[1]; [3]", "value": "> 20", "unit": "nM"}, {"measurement": "EC50", "setting": "[2]", "value": 0.029, "unit": "nM"}]}
